Results taken from patent US20240308995A1, “O-GLYCOPROTEIN-2-ACETAMIDO-2-DEOXY-3-D-GLUCOPYRANOSIDASE INHIBITORS” (BIOGEN MA INC., priority 2018, published 2024).
Like-named read-outs stand apart in the source and are kept apart here.

How the values were obtained:
[1] = biological target: OGA (S400 O-GLCNAC), HEK-293T cells transfected with Tau-V5 (Homo sapiens (Human), UniProt O60502); experiment: Cellular OGA-Tau MSD Assay; format: cell-based
Summary of the method: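 HEK-293T cells transfected with OGA and Tau-V5 plasmids were treated overnight at 37° C with a 10-point, 3-fold titration from 1 uM. Lysates went onto V5-antibody MSD plates to capture Tau, probed with a Tau O-GlcNAc antibody and read by electrochemiluminescence; IC50 from a 4-parameter fit.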

[2] = Rat Liver Microsome Stability Assay; format: in vitro ADME; conditions: rat liver microsomes, 1 uM compound
[3] = biological target: Recombinant full length human OGA enzyme (Homo sapiens (Human), UniProt O60502); experiment: OGA Enzyme Inhibition Biochemical Assay; conditions: 1 nM OGA, 100 μM 4-MUGlcNAc, pH 6.4
Summary of the method: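 Full-length recombinant human OGA with fluorogenic 4-MUGlcNAc in McIlvaine buffer pH 6.4, 0.01% BSA; 90 min at room temperature, glycine pH 10 quench, fluorescence Ex 355/Em 460 nm. 10-point, 4-fold dilution from 20 μM; 4-parameter variable-slope fit.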

P-gp (MDR1) = experiment: MDR1-MDCK Efflux Ratio Assay; format: in vitro ADME; conditions: dog, read-out: MDR1-MDCK Efflux Ratio (B-A/A-B)
Summary of the method: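 Bidirectional (apical↔basolateral) transport across confluent MDR1-MDCK monolayers in HBSS/10 mM HEPES pH 7.4, receiver buffer with 1% BSA; 2 hr at 37° C, 5% CO2. Donor sampled at 0 and 120 min, receiver at 120 min, quantified by LC-MS/MS in triplicate. Papp, efflux ratio and percent recovery calculated.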

[4] = HEK-293T cells, Tau-S400-GlcNAc MSD readout
[5] = MDCK-MDR1, pH 7.4, MDR1-MDCK cells, 2 hr, pH 7.4

OGA (S400 O-GLCNAC), HEK-293T cells transfected with Tau-V5, sequence (O60502 whole entry): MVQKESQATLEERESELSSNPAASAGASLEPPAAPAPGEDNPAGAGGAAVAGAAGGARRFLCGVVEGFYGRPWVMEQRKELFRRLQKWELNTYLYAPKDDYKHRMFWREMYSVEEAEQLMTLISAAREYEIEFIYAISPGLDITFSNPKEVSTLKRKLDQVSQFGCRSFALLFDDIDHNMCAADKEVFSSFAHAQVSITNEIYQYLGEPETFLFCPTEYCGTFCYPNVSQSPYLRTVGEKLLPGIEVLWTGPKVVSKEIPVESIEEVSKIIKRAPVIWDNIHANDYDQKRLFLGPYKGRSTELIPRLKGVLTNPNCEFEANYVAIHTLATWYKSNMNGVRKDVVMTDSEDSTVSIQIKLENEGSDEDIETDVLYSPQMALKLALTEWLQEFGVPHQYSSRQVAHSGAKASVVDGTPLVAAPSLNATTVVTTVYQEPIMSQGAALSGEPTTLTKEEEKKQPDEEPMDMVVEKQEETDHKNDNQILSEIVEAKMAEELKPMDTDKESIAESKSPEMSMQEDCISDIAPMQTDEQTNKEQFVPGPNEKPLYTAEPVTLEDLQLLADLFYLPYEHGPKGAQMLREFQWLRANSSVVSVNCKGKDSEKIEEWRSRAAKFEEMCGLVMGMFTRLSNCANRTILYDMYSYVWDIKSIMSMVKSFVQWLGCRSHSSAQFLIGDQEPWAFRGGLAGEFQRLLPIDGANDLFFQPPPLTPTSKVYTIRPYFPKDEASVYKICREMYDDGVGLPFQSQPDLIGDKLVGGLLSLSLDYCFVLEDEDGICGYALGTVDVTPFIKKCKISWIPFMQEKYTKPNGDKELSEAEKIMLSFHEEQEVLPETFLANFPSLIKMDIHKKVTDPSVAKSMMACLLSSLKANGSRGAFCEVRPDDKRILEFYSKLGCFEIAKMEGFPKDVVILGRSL
Recombinant full length human OGA enzyme, sequence (O60502 whole entry): as above

IC50 [1, 4] [nM] | RLM % Qh (%) [2] [%] | IC50 [3] [nM] | efflux ratio at 2 h (P-gp (MDR1); [5]) | IC50 ([1]; repeated assay, value marked with asterisk (*)) [nM] | efflux ratio at 2 h (P-gp (MDR1); MDCK-MDR1, pH 7.4, repeated assay, value marked with asterisk (*)) | Structure (SMILES)
1 | 36 | < 1 | 76.5 | – | – | CCNc1cc(O[C@@H]2C[C@H](C)N(Cc3cnc(NC(C)=O)s3)C2)ncn1 [Example 1-135, N-(5-(((2S,4R)-4-((6-(ethylamino)pyrimidin-4-yl)oxy)-2-methylpyrrolidin-1-yl)methyl)thiazol-2-yl)acetamide]
1 | 85 | < 1 | 3.5 | – | – | COc1cc(O[C@@H]2C[C@H](C)N(Cc3sc(NC(C)=O)nc3F)C2)ncc1F [Example 1-118, N-(4-fluoro-5-(((2S,4R)-4-((5-fluoro-4-methoxypyridin-2-yl)oxy)-2-methylpyrrolidin-1-yl)methyl)thiazol-2-yl)acetamide]
1 | 81 | < 1 | 6.9 | – | – | COc1cc(O[C@H]2CC[C@H](C)N(Cc3cnc(NC(C)=O)s3)C2)ncn1 [Example 1-43, N-(5-(((2S,5S)-5-((6-methoxypyrimidin-4-yl)oxy)-2-methylpiperidin-1-yl)methyl)thiazol-2-yl)acetamide]
1 | 93 | < 1 | 2.1 | – | – | COc1ccc(O[C@@H]2C[C@H](C)N(Cc3sc(NC(C)=O)nc3F)C2)nc1 [Example 1-98, N-(4-fluoro-5-(((2S,4R)-4-((5-methoxypyridin-2-yl)oxy)-2-methylpyrrolidin-1-yl)methyl)thiazol-2-yl)acetamide]
2 | 30 | < 1 | 16 | – | – | CC(=O)Nc1ncc(CN2C[C@H](Oc3ccnc(C)n3)C[C@@H]2C)s1 [Example 1-104, N-(5-(((2S,4R)-2-methyl-4-((2-methylpyrimidin-4-yl)oxy)pyrrolidin-1-yl)methyl)thiazol-2-yl)acetamide]
47 | 33 | 16 | 1.8 | – | – | COc1cc(O[C@@H]2CCN(Cc3sc(NC(C)=O)nc3F)C2)ncn1 [Example 1-28, (R)—N-(4-fluoro-5-((3-((6-methoxypyrimidin-4-yl)oxy)pyrrolidin-1-yl)methyl)thiazol-2-yl)acetamide]
81 | 61 | 39 | 3.9 | – | – | COc1cc(O[C@@H]2CCCN(Cc3cnc(NC(C)=O)s3)C2)ncn1 [Example 1-42, (R)—N-(5-((3-((6-methoxypyrimidin-4-yl)oxy)piperidin-1-yl)methyl)thiazol-2-yl)acetamide]
966 | 61 | 47 | 1.7 | – | – | CCC(=O)Nc1nc(F)c(CN2CC[C@@H](Oc3cc(OC)ncn3)C2)s1 [Example 1-45, (R)—N-(4-fluoro-5-((3-((6-methoxypyrimidin-4-yl)oxy)pyrrolidin-1-yl)methyl)thiazol-2-yl)propionamide]
2 | 88 | < 1 | 9.3 | – | – | COc1cc(O[C@@H]2CC[C@H](C)N(Cc3cnc(NC(C)=O)s3)C2)ncn1 [Example 1-44, N-(5-(((2S,5R)-5-((6-methoxypyrimidin-4-yl)oxy)-2-methylpiperidin-1-yl)methyl)thiazol-2-yl)acetamide]
32 | 87 | 39 | 1.9 | – | – | CC(=O)Nc1ncc(CN2C[C@@H](Oc3ccc(F)cn3)C[C@@H]2C)s1 [Example 1-9, N-(5-(((2S,4S)-4-((5-fluoropyridin-2-yl)oxy)-2-methylpyrrolidin-1-yl)methyl)thiazol-2-yl)acetamide]
< 1 | 26 | < 1 | 11.2 | – | – | CC(=O)Nc1ncc(CN2C[C@H](Oc3ncc(F)cn3)C[C@@H]2C)s1 [Example 1-86, N-(5-(((2S,4R)-4-((5-fluoropyrimidin-2-yl)oxy)-2-methylpyrrolidin-1-yl)methyl)thiazol-2-yl)acetamide]
8 | 62 | 1.9 | 3.1 | – | – | CC(=O)Nc1ncc(CN2C[C@H](Oc3cc(OC(C)C)ncn3)C[C@@H]2C)s1 [Example 1-127, N-(5-(((2S,4R)-4-((6-isopropoxypyrimidin-4-yl)oxy)-2-methylpyrrolidin-1-yl)methyl)thiazol-2-yl)acetamide]
< 1 | 65 | 1.2 | 18.1 | – | – | CC(=O)Nc1ncc(CN2C[C@H](Oc3ncc(OC(F)F)cn3)C[C@@H]2C)s1 [Example 1-80, N-(5-(((2S,4R)-4-((5-(difluoromethoxy)pyrimidin-2-yl)oxy)-2-methylpyrrolidin-1-yl)methyl)thiazol-2-yl)acetamide]
< 1 | 66 | < 1 | 19.7 | – | – | COc1cnc(O[C@@H]2C[C@H](C)N(Cc3sc(NC(C)=O)nc3F)C2)nc1 [Example 1-89, N-(4-fluoro-5-(((2S,4R)-4-((5-methoxypyrimidin-2-yl)oxy)-2-methylpyrrolidin-1-yl)methyl)thiazol-2-yl)acetamide]
– | 63 | < 1 | 2.9 | 7 | 3 | CC(=O)Nc1ncc(CN2C[C@H](Oc3ccnc(OC(F)F)c3)C[C@@H]2C)s1 [Example 1-20, N-(5-(((2S,4R)-4-((2-(difluoromethoxy)pyridin-4-yl)oxy)-2-methylpyrrolidin-1-yl)methyl)thiazol-2-yl)acetamide]
2 | 90 | < 1 | 4.1 | – | – | COc1cc(O[C@H]2CC[C@H](C)N(Cc3sc(NC(C)=O)nc3F)C2)ncn1 [Example 1-34, N-(4-fluoro-5-(((2S,5S)-5-((6-methoxypyrimidin-4-yl)oxy)-2-methylpiperidin-1-yl)methyl)thiazol-2-yl)acetamide]
1 | 16 | < 1 | 38.6 | – | – | CC(=O)Nc1ncc(CN2C[C@H](Oc3ccc(F)nn3)C[C@@H]2C)s1 [Example 1-83, N-(5-(((2S,4R)-4-((6-fluoropyridazin-3-yl)oxy)-2-methylpyrrolidin-1-yl)methyl)thiazol-2-yl)acetamide]
1 | 70 | < 1 | 53.4 | – | – | CC(=O)Nc1ncc(CN2C[C@H](Oc3cc(NC4CCC4)ncn3)C[C@@H]2C)s1 [Example 1-134, N-(5-(((2S,4R)-4-((6-(cyclobutylamino)pyrimidin-4-yl)oxy)-2-methylpyrrolidin-1-yl)methyl)thiazol-2-yl)acetamide]
< 1 | 88 | < 1 | 1.1 | – | – | CC(=O)Nc1nc(F)c(CN2C[C@H](Oc3ccc(Cl)cn3)C[C@@H]2C)s1 [Example 1-90, N-(5-(((2S,4R)-4-((5-chloropyridin-2-yl)oxy)-2-methylpyrrolidin-1-yl)methyl)-4-fluorothiazol-2-yl)acetamide]
8 | 55 | 1.9 | 22.2 | – | – | CC(=O)Nc1ncc(CN2CC[C@@H](Oc3cc(C)nc(C)c3)C2)s1 [Example 1-59, (R)—N-(5-((3-((2,6-dimethylpyridin-4-yl)oxy)pyrrolidin-1-yl)methyl)thiazol-2-yl)acetamide]
> 1000 | 16 | 520 | 28.5 | – | – | CC(=O)Nc1ncc(CN2CC[C@H](Oc3cc(C)nc(C)c3)C2)s1 [Example 1-58, (S)—N-(5-((3-((2,6-dimethylpyridin-4-yl)oxy)pyrrolidin-1-yl)methyl)thiazol-2-yl)acetamide]
1 | 56 | < 1 | 21.3 | – | – | CC(=O)Nc1ncc(CN2C[C@H](Oc3cc(C)nc(C)c3)C[C@@H]2C)s1 [Example 1-60, N-(5-(((2S,4R)-4-((2,6-dimethylpyridin-4-yl)oxy)-2-methylpyrrolidin-1-yl)methyl)thiazol-2-yl)acetamide]
2 | 60 | < 1 | 3.8 | – | – | CC(=O)Nc1nc(F)c(CN2C[C@H](Oc3ccc(F)nc3)C[C@@H]2C)s1 [Example 1-85, N-(4-fluoro-5-(((2S,4R)-4-((6-fluoropyridin-3-yl)oxy)-2-methylpyrrolidin-1-yl)methyl)thiazol-2-yl)acetamide]
8 | 16 | < 1 | 12.7 | – | – | CC(=O)Nc1nc(F)c(CN2C[C@H](Oc3cc(O)ncn3)C[C@@H]2C)s1 [Example 1-109, N-(4-fluoro-5-(((2S,4R)-4-((6-hydroxypyrimidin-4-yl)oxy)-2-methylpyrrolidin-1-yl)methyl)thiazol-2-yl)acetamide]
